Measurements reported in PubChem BioAssay (NCI).
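Each compound was tested at five concentrations against cells in 96-well plates for 48 hours. GI50 = concentration required for 50% inhibition of growth. At the TGI there is no net growth.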

Tests used:
Experiment in all cases: growth of human tumour cells (NCI), 48 h
SR leukemia = test system: SR leukemia
SN12C renal = test system: SN12C renal
HS 578T breast = test system: HS 578T breast
DU-145 prostate = test system: DU-145 prostate
BT-549 breast = test system: BT-549 breast
NCI/ADR-RES ovarian = test system: NCI/ADR-RES ovarian
NCI-H226 lung = test system: NCI-H226 lung
OVCAR-8 ovarian = test system: OVCAR-8 ovarian
SW-620 colon = test system: SW-620 colon
HT29 colon = test system: HT29 colon
T-47D breast = test system: T-47D breast
SF-539 CNS = test system: SF-539 CNS
COLO 205 colon = test system: COLO 205 colon
A549 NSCLC = test system: A549 NSCLC
PC-3 prostate = test system: PC-3 prostate
K-562 leukemia = test system: K-562 leukemia
MDA-MB-468 breast = test system: MDA-MB-468 breast
A498 renal = test system: A498 renal
CAKI-1 renal = test system: CAKI-1 renal
HOP-92 NSCLC = test system: HOP-92 NSCLC
HCT-116 colon = test system: HCT-116 colon
SK-MEL-2 melanoma = test system: SK-MEL-2 melanoma
NCI-H522 lung = test system: NCI-H522 lung
SK-OV-3 ovarian = test system: SK-OV-3 ovarian
TK-10 renal = test system: TK-10 renal
M14 melanoma = test system: M14 melanoma
OVCAR-5 ovarian = test system: OVCAR-5 ovarian
MOLT-4 leukemia = test system: MOLT-4 leukemia
UO-31 renal = test system: UO-31 renal
RXF 393 renal = test system: RXF 393 renal
U251 CNS = test system: U251 CNS
HOP-62 NSCLC = test system: HOP-62 NSCLC
SK-MEL-28 melanoma = test system: SK-MEL-28 melanoma
MDA-MB-435 = test system: MDA-MB-435
ACHN renal = test system: ACHN renal
OVCAR-4 ovarian = test system: OVCAR-4 ovarian
NCI-H23 lung = test system: NCI-H23 lung
UACC-257 melanoma = test system: UACC-257 melanoma
SF-295 CNS = test system: SF-295 CNS
HCC-2998 colon = test system: HCC-2998 colon
MDA-MB-231 breast = test system: MDA-MB-231 breast
EKVX NSCLC = test system: EKVX NSCLC
HL-60(TB) leukemia = test system: HL-60(TB) leukemia
HCT-15 colon = test system: HCT-15 colon
SK-MEL-5 melanoma = test system: SK-MEL-5 melanoma
CCRF-CEM leukemia = test system: CCRF-CEM leukemia
IGROV1 ovarian = test system: IGROV1 ovarian
SF-268 CNS = test system: SF-268 CNS
UACC-62 melanoma = test system: UACC-62 melanoma
MCF7 breast = test system: MCF7 breast
786-0 renal = test system: 786-0 renal
OVCAR-3 ovarian = test system: OVCAR-3 ovarian
LOX IMVI melanoma = test system: LOX IMVI melanoma
RPMI-8226 leukemia = test system: RPMI-8226 leukemia
NCI-H460 lung = test system: NCI-H460 lung
SNB-19 CNS = test system: SNB-19 CNS
KM12 colon = test system: KM12 colon
SNB-75 CNS = test system: SNB-75 CNS
MALME-3M melanoma = test system: MALME-3M melanoma

## COc1sc(/C=N/NC(=O)c2[nH]c3ccc(Br)cc3c2-c2ccccc2)cc1Br
SR leukemia
  GI50: 1100 nM
  TGI: > 100000 nM
SN12C renal
  GI50: 2910 nM
  TGI: > 100000 nM
HS 578T breast
  GI50: 1920 nM
  TGI: > 100000 nM
DU-145 prostate
  GI50: 3360 nM
  TGI: > 100000 nM
BT-549 breast
  GI50: 3300 nM
  TGI: 8100 nM
NCI/ADR-RES ovarian
  GI50: 2120 nM
  TGI: 6450 nM
NCI-H226 lung
  GI50: 2870 nM
  TGI: 68900 nM
OVCAR-8 ovarian
  GI50: 499 nM
  TGI: > 100000 nM
SW-620 colon
  GI50: 3280 nM
  TGI: > 100000 nM
HT29 colon
  GI50: 1160 nM
  TGI: > 100000 nM
T-47D breast
  GI50: 45200 nM
  TGI: > 100000 nM
SF-539 CNS
  GI50: 1930 nM
  TGI: 5510 nM
COLO 205 colon
  GI50: 223 nM
  TGI: 516 nM
A549 NSCLC
  GI50: 3350 nM
  TGI: > 100000 nM
PC-3 prostate
  GI50: 3140 nM
  TGI: > 100000 nM
K-562 leukemia
  GI50: 508 nM
  TGI: > 100000 nM
MDA-MB-468 breast
  GI50: 2180 nM
  TGI: 6880 nM
A498 renal
  GI50: 5440 nM
  TGI: 39400 nM
CAKI-1 renal
  GI50: 892 nM
  TGI: > 100000 nM
HOP-92 NSCLC
  GI50: 26500 nM
  TGI: > 100000 nM
HCT-116 colon
  GI50: 1250 nM
  TGI: > 100000 nM
SK-MEL-2 melanoma
  GI50: 5120 nM
  TGI: > 100000 nM
NCI-H522 lung
  GI50: 259 nM
  TGI: 686 nM
SK-OV-3 ovarian
  GI50: 365 nM
  TGI: > 100000 nM
TK-10 renal
  GI50: 88900 nM
  TGI: > 100000 nM
M14 melanoma
  GI50: 2250 nM
  TGI: > 100000 nM
OVCAR-5 ovarian
  GI50: 3390 nM
  TGI: 69900 nM
MOLT-4 leukemia
  GI50: 3160 nM
  TGI: 35600 nM
UO-31 renal
  GI50: 4210 nM
  TGI: > 100000 nM
RXF 393 renal
  GI50: 4270 nM
  TGI: > 100000 nM
U251 CNS
  GI50: 3650 nM
  TGI: > 100000 nM
HOP-62 NSCLC
  GI50: 353 nM
  TGI: 37500 nM
SK-MEL-28 melanoma
  GI50: 4890 nM
  TGI: > 100000 nM
MDA-MB-435
  GI50: 324 nM
  TGI: 1800 nM
ACHN renal
  GI50: 3270 nM
  TGI: > 100000 nM
OVCAR-4 ovarian
  GI50: 9780 nM
  TGI: > 100000 nM
NCI-H23 lung
  GI50: 3670 nM
  TGI: > 100000 nM
UACC-257 melanoma
  GI50: > 100000 nM
  TGI: > 100000 nM
SF-295 CNS
  GI50: 2840 nM
  TGI: > 100000 nM
HCC-2998 colon
  GI50: 3740 nM
  TGI: > 100000 nM
MDA-MB-231 breast
  GI50: 3210 nM
  TGI: > 100000 nM
EKVX NSCLC
  GI50: 5700 nM
  TGI: > 100000 nM
HL-60(TB) leukemia
  GI50: 1620 nM
  TGI: 5530 nM
HCT-15 colon
  GI50: 3270 nM
  TGI: > 100000 nM
SK-MEL-5 melanoma
  GI50: 2120 nM
  TGI: 4970 nM
CCRF-CEM leukemia
  GI50: 2110 nM
  TGI: > 100000 nM
IGROV1 ovarian
  GI50: 3500 nM
  TGI: > 100000 nM
SF-268 CNS
  GI50: 2820 nM
  TGI: > 100000 nM
UACC-62 melanoma
  GI50: 988 nM
  TGI: > 100000 nM
MCF7 breast
  GI50: 1540 nM
  TGI: > 100000 nM
786-0 renal
  GI50: 2840 nM
  TGI: > 100000 nM
OVCAR-3 ovarian
  GI50: 1200 nM
  TGI: 12000 nM
LOX IMVI melanoma
  GI50: 2930 nM
  TGI: 35800 nM
RPMI-8226 leukemia
  GI50: 1920 nM
  TGI: > 100000 nM
NCI-H460 lung
  GI50: 3030 nM
  TGI: 12400 nM
SNB-19 CNS
  GI50: 3980 nM
  TGI: > 100000 nM
KM12 colon
  GI50: 3030 nM
  TGI: > 100000 nM
SNB-75 CNS
  GI50: 359 nM
  TGI: 25300 nM

## O=C(NN1C(=O)/C(=C/C=C/c2ccc([N+](=O)[O-])o2)SC1=S)c1cccc(O)c1
SN12C renal
  GI50: 256 nM
  TGI: 1150 nM
HS 578T breast
  GI50: 2130 nM
  TGI: 7700 nM
DU-145 prostate
  GI50: 2120 nM
  TGI: 4480 nM
BT-549 breast
  GI50: 492 nM
  TGI: 1790 nM
NCI/ADR-RES ovarian
  GI50: 1960 nM
  TGI: 4630 nM
NCI-H226 lung
  GI50: 393 nM
  TGI: 1580 nM
OVCAR-8 ovarian
  GI50: 571 nM
  TGI: 2540 nM
SW-620 colon
  GI50: 209 nM
  TGI: 485 nM
SF-539 CNS
  GI50: 1580 nM
  TGI: 2950 nM
COLO 205 colon
  GI50: 1600 nM
  TGI: 3080 nM
A549 NSCLC
  GI50: 2920 nM
  TGI: 11600 nM
PC-3 prostate
  GI50: 1880 nM
  TGI: 4180 nM
K-562 leukemia
  GI50: 222 nM
  TGI: 1100 nM
MDA-MB-468 breast
  GI50: 1710 nM
  TGI: 3400 nM
A498 renal
  GI50: 19700 nM
  TGI: 33800 nM
CAKI-1 renal
  GI50: 1570 nM
  TGI: 2920 nM
HOP-92 NSCLC
  GI50: 1230 nM
  TGI: 2820 nM
HCT-116 colon
  GI50: 233 nM
  TGI: 630 nM
SK-MEL-2 melanoma
  GI50: 1070 nM
  TGI: 2440 nM
NCI-H522 lung
  GI50: 185 nM
  TGI: 367 nM
SK-OV-3 ovarian
  GI50: 1910 nM
  TGI: 4310 nM
TK-10 renal
  GI50: 1780 nM
  TGI: 3490 nM
M14 melanoma
  GI50: 282 nM
  TGI: 921 nM
OVCAR-5 ovarian
  GI50: 1850 nM
  TGI: 3380 nM
MOLT-4 leukemia
  GI50: 295 nM
  TGI: 1280 nM
UO-31 renal
  GI50: 1410 nM
  TGI: 2720 nM
RXF 393 renal
  GI50: 1250 nM
  TGI: 2520 nM
U251 CNS
  GI50: 1390 nM
  TGI: 2890 nM
HOP-62 NSCLC
  GI50: 1730 nM
  TGI: 3190 nM
SK-MEL-28 melanoma
  GI50: 1660 nM
  TGI: 3030 nM
MDA-MB-435
  GI50: 675 nM
  TGI: 2110 nM
ACHN renal
  GI50: 1640 nM
  TGI: 3000 nM
NCI-H23 lung
  GI50: 1010 nM
  TGI: 2260 nM
UACC-257 melanoma
  GI50: 1740 nM
  TGI: 3540 nM
SF-295 CNS
  GI50: 2120 nM
  TGI: 5010 nM
MALME-3M melanoma
  GI50: 205 nM
  TGI: 447 nM
HCC-2998 colon
  GI50: 1740 nM
  TGI: 3150 nM
MDA-MB-231 breast
  GI50: 253 nM
  TGI: 737 nM
EKVX NSCLC
  GI50: 1490 nM
  TGI: 2900 nM
HL-60(TB) leukemia
  GI50: 2120 nM
  TGI: 5490 nM
HCT-15 colon
  GI50: 167 nM
  TGI: 371 nM
SK-MEL-5 melanoma
  GI50: 662 nM
  TGI: 1950 nM
IGROV1 ovarian
  GI50: 1390 nM
  TGI: 2690 nM
SF-268 CNS
  GI50: 1950 nM
  TGI: 4810 nM
UACC-62 melanoma
  GI50: 587 nM
  TGI: 1930 nM
MCF7 breast
  GI50: 1240 nM
  TGI: 2960 nM
786-0 renal
  GI50: 1620 nM
  TGI: 3020 nM
LOX IMVI melanoma
  GI50: 167 nM
  TGI: 323 nM
RPMI-8226 leukemia
  GI50: 387 nM
  TGI: 2190 nM
NCI-H460 lung
  GI50: 1630 nM
  TGI: 3710 nM
SNB-19 CNS
  GI50: 1810 nM
  TGI: 3560 nM
SNB-75 CNS
  GI50: 1280 nM
  TGI: 5870 nM
